Active and inactive are the calls of the source.
Assays:
[1] = biological target: T1, Mannose-6-phosphate isomerase (Homo sapiens, UniProt P34949); test: human PMI inhibitors, high substrate, primary screen, biochemical, fluorescence intensity, high mannose 6-phosphate (AID 1220)
T1 sequence (P34949 whole entry): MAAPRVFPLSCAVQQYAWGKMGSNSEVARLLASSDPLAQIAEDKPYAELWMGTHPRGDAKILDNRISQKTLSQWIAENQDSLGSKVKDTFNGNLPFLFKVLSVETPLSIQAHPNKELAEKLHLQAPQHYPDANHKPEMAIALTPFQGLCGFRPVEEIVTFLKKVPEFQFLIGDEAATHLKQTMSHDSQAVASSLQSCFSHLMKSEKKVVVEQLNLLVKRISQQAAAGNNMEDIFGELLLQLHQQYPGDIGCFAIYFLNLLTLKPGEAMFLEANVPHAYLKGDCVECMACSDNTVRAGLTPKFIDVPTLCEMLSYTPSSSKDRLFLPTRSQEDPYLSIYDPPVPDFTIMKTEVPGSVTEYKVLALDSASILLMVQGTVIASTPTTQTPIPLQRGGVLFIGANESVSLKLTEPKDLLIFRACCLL

[2] = biological target: Lysine-specific demethylase 4A (Homo sapiens, UniProt O75164); test: JMJD2A histone demethylase inhibitors, dose response, selectivity assay for GASC-1 inhibitor project, biochemical, DELFIA europium, cherry-picked samples (AID 488840)
Chain of Lysine-specific demethylase 4A (O75164 whole entry): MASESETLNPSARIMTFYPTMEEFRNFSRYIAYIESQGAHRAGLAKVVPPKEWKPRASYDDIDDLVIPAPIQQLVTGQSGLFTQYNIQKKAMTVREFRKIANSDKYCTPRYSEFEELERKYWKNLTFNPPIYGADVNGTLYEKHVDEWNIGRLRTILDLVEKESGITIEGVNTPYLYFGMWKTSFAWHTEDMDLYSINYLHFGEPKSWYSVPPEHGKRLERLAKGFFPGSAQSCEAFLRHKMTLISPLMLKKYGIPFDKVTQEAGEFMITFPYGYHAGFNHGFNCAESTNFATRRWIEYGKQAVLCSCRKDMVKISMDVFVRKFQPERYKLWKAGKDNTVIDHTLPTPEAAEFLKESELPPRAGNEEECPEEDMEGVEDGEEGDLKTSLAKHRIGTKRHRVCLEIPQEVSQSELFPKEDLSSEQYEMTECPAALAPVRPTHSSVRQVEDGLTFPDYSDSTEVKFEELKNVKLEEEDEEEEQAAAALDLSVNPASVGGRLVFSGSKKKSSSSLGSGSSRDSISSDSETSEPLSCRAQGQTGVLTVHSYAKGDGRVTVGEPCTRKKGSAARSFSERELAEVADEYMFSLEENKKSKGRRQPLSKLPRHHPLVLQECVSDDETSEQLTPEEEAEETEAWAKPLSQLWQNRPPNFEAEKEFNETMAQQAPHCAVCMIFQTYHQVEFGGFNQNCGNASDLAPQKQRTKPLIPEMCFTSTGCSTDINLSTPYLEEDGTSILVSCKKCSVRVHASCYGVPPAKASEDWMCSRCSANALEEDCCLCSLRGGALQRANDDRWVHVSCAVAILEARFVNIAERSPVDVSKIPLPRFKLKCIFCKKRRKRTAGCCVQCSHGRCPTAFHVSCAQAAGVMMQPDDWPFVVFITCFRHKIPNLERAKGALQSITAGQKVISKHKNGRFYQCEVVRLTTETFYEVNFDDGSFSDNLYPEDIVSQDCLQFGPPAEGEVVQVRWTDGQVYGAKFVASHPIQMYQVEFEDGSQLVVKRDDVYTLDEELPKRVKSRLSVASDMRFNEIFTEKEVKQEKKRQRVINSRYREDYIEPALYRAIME

Vero = test: cells; format: functional, cell-based; settings: Chlorocebus sabaeus
[3] = biological target: T2, Heat shock factor protein 1 (Mus musculus, UniProt P38532); test: HSF1 potentiators in luciferase reporter cells, confirmation, cell-based, NIH3T3, luminescence, dose retest (AID 435004); format: functional;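 note: stress induced by proteasome inhibitor MG132 added 30 min after compound; luciferase reporter driven by HSF1 response element in NIH3T3 cells; actives raise luminescence as potentiators of the MG132 stress response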
T2 sequence (P38532 whole entry): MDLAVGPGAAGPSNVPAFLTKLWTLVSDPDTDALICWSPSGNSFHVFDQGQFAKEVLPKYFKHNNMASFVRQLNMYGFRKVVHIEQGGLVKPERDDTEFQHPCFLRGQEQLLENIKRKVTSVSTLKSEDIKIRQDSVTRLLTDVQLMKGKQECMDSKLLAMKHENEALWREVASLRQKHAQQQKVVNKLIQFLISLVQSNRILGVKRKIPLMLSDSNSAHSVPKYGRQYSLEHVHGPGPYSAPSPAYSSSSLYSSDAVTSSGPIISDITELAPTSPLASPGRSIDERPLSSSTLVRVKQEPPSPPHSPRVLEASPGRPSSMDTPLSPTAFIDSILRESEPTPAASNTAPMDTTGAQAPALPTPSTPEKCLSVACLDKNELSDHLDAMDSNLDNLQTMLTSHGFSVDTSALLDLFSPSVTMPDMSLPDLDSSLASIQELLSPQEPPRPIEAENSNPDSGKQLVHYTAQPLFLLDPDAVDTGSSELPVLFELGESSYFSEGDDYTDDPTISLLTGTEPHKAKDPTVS

[4] = biological target: T3, Microphthalmia-associated transcription factor (Homo sapiens, UniProt O75030); test: TRPM1 promoter luciferase signal decrease, dose response, MITF inhibitor project, cell-based, SK-MEL-5, cherry-picked, set 3 (AID 493073); format: functional
T3 sequence (O75030 whole entry): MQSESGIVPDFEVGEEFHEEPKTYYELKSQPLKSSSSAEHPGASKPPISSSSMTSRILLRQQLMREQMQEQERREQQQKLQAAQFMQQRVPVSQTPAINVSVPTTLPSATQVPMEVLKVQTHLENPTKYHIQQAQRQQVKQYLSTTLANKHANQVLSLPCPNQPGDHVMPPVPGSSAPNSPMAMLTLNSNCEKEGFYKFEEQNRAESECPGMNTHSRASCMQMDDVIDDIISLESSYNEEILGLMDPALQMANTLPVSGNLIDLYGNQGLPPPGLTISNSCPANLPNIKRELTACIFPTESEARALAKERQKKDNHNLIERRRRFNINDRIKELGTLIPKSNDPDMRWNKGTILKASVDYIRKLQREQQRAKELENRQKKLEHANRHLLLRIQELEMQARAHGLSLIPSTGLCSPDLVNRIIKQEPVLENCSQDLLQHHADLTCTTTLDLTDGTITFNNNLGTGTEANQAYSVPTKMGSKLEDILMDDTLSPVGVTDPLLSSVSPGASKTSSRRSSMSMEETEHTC

Caspase-6 = biological target: T4, Caspase-6 (Homo sapiens, UniProt P55212); test: human caspase-6 inhibitors, dose response, biochemical, VEID-R110 fluorescence, cherry-pick (AID 720632)
T4 sequence (P55212 whole entry): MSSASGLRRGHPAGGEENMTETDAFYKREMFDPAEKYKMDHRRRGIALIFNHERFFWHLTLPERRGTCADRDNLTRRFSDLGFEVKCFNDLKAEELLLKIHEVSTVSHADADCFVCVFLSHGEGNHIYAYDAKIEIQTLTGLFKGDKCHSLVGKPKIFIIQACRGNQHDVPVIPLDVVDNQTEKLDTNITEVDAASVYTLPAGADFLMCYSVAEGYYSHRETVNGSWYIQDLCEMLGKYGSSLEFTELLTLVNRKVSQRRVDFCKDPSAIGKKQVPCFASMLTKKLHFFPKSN

[5] = cytotoxicity toward DRD oncogenic fibroblasts, dose response, cell-based, non-viral oncogenic, luminescence (AID 1934); format: functional; settings: Homo sapiens
[6] = Vero E6 cell cytotoxicity, dose response, cytotoxicity control for non-replicating M. tuberculosis project, secondary assay (AID 492998); format: functional, VeroE6; settings: Vero C1008
BJ [7] = test: cells; format: functional, cell-based; settings: Homo sapiens
cells = format: functional
[8] = growth suppression of PTEN-null colon cells, dose response, cell-based, HCT116 PTEN knockout (AID 1047); format: functional;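 note: HCT116 colon tumor cells with PTEN knocked out; cells exposed to compound for 60 hours before readout; potency for loss of cell viability measured by luminescence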
[9] = growth suppression of beta-catenin-knockout colon cells, dose response, cell-based, HCT116, human colon tumor (AID 1045); format: functional;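 note: HCT116 colon tumor cells with beta catenin knocked out; cells exposed to compound for 60 hours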
BJ [10] = test: cytotoxicity toward BJ-TERT-LT-ST fibroblasts, dose response, cell-based, RAS-independent, luminescence (AID 1935); format: functional; settings: Homo sapiens;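 note: BJ fibroblasts immortalized with TERT plus LT and ST oncogenes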
HEK293 [11] = test: cells; settings: Homo sapiens
[12] = THP-1 cell cytotoxicity, dose response, cytotoxicity control for non-replicating M. tuberculosis project (AID 489025); format: functional
HEK293 [13] = test: cells; settings: Homo sapiens; remark: listed apart in the source
BJ [14] = test: cytotoxicity toward BJ-TERT fibroblasts, dose response, cell-based, RAS-independent, luminescence (AID 1933); format: functional; settings: Homo sapiens
[15] = Luminescence Cell-Based Dose Response HTS to Identify Inhibitors of 5'UTR Stem-Loop Driven Prion Protein mRNA Translation in H4 Neuroglioblastoma Cells. [Related pubchem assays: 1827 (Project Summary), 1813 (Primary HTS)]; format: functional
[16] = biological target: T5, Eukaryotic translation initiation factor 2-alpha kinase 3 (Homo sapiens, UniProt Q9NZJ5); test: Counterscreen assay for PERK inhibitors: Dose response cell-based high throughput screening assay to measure inhibition of PERK at 6 hours. [Related pubchem assays: 1522, 1416 ]; format: functional
T5 sequence (Q9NZJ5 whole entry): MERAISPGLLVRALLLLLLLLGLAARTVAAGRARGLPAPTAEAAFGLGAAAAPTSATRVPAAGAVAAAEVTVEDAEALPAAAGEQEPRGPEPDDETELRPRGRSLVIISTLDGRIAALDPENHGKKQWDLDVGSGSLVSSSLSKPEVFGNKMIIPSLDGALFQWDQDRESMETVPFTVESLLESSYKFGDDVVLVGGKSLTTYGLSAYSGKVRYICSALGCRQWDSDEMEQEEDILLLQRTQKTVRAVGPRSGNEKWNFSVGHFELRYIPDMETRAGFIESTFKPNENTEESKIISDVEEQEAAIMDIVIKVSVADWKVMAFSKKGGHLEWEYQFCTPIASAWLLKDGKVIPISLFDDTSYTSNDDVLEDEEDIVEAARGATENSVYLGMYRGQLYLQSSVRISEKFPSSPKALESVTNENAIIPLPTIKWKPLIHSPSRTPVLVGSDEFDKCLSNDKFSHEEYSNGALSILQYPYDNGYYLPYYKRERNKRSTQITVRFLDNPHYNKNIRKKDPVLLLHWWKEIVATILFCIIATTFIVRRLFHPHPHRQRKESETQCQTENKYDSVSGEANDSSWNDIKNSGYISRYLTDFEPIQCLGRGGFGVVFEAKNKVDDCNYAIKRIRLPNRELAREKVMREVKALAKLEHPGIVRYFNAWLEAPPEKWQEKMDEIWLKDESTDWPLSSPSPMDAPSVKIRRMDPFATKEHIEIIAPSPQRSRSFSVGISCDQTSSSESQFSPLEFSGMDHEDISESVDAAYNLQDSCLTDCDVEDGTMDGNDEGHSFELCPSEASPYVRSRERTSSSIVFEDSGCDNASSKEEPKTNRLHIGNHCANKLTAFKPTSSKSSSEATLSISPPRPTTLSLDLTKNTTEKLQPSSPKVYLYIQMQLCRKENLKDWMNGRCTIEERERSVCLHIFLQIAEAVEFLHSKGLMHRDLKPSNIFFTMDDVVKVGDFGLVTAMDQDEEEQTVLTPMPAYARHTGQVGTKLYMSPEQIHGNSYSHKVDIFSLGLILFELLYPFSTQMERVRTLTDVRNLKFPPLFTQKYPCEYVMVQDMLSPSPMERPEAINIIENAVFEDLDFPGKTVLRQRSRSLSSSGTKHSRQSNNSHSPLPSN

[17] = inhibitors of firefly luciferase expression or activity, dose response, H4 neuroglioma cells, luminescence (AID 1990); format: functional, cell-based
[18] = inhibitors of SNCA 5'UTR-driven reporter translation, confirmation, H4 neuroglioma cells, luminescence (AID 1988); format: functional, cell-based
[19] = biological target: T5, Eukaryotic translation initiation factor 2-alpha kinase 3; test: Dose response cell-based high-throughput screening assay to measure PERK inhibition. [Related pubchem assays: 1416 ]; format: functional
Cytochrome P450 2D6 = Cytochrome P450 2D6 (Homo sapiens, UniProt P10635);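 note: CYP2D6 member of a cytochrome P450 panel assay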
Chain of Cytochrome P450 2D6 (P10635 whole entry): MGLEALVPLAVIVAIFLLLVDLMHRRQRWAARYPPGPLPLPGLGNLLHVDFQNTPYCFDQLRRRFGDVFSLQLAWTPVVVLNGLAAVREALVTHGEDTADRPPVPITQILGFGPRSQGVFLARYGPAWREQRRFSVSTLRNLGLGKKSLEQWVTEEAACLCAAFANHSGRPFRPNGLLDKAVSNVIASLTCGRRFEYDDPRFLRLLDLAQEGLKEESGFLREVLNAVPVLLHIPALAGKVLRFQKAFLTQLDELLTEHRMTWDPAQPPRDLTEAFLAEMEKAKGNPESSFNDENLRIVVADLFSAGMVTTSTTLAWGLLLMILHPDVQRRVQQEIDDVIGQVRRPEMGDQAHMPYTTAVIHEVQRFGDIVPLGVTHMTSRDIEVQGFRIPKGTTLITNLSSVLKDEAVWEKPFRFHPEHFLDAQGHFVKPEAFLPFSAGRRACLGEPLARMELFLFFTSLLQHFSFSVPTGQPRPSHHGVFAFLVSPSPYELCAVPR

CC(=O)Nc1ccc2c(c1)C(C)(C)C(C)N2C (stereo not drawn)
IC50 [1]: > 50 µM (not active)
AC50 [2]: 17.9 µM (active)

O=C1c2cc([N+](=O)[O-])cc3cc([N+](=O)[O-])cc(c23)C(=O)N1c1ccccn1
IC50 (Vero): 16.3 µM (active)
EC50 [3]: 13.7 µM (active)
AC50 [4]: 7.92 µM (active)
AC50 (Caspase-6): 15.3 µM (active)
EC50 [5]: 11.2 µM (active)
CC50 [6]: 15.2 µM (active)
EC50 (BJ [7]): 54.8 µM (active)
IC50 (cells): 3.43 µM (active)
EC50 [8]: 9.92 µM (active)
EC50 [9]: 7.76 µM (active)
EC50 (BJ [10]): > 150 µM (inconclusive)
EC50 (HEK293 [11]): > 59.7 µM (inactive)
CC50 [12]: 17.5 µM (active)
EC50 (HEK293 [13]): > 59.7 µM (inactive)
EC50 (BJ [14]): 37.1 µM (active)

CC(C)n1nnnc1-c1cc(Cl)cc(Cl)c1
EC50 [15]: 10.2 µM (active)
EC50 [16]: > 55.7 µM (not active)
EC50 [17]: > 120 µM (not active)
EC50 [18]: > 120 µM (not active)
EC50 [19]: > 55.7 µM (not active)
AC50 (Cytochrome P450 2D6): inconclusive

— ChEMBL document CHEMBL1201862, “PubChem BioAssay data set” (2004)
